{"source": "PubChem BioAssay AID1963831", "about": "(Molecular Pharmacology Branch, DTP, NCI, 2024);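 further: spheroids exposed to compounds for seven days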;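 on viability, T/C: 100% = DMSO vehicle control viability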", "system": "889142-216-R-J1-PDC complex spheroid viability", "assay": "Anticancer human tumor 889142-216-R-J1-PDC patient-derived bladder carcinoma cell line growth inhibition [POLQ]", "details": "for IC50: curve of first compound; for viability, T/C: stronger effect = lower value", "method": "Multicellular complex tumor spheroid response to Polymerase (POL) inhibitors (novobiocin, ART-558, RP6685) in combination with a variety of drugs and investigational agents in selected tumor cell lines\nThe POL inhibitors (novobiocin, ART-558, and RP6685) were evaluated both individually and in combination with standard of care and investigational anticancer small molecules within a complex spheroid model of solid tumors. . Complex spheroids include a stromal component modeled by human endothelial cells (HUVEC) and fibroblasts modeled by human mesenchymal stem cells (MSCs). The concentration ranges selected for each drug and investigational agent were based upon clinically achievable concentrations if the clinical Cmax of the agent was known.\nCompounds. The drugs and investigational agents: novobiocin (NSC847541), ART-558 (NSC835418), RP-6685 (NSC848927), peposertib (NSC802822), ceralasertib (NSC780249), elimusertib (NSC800525), camonsertib (NSC841442), AZD-1390 (NSC803789), olaparib (NSC753686), talazoparib (NSC767125), rucaparib (NSC756644), sotorasib (NSC818433), MRTX-1133 (NSC836407), SN-38 (NSC673596), topotecan (NSC609699), epotoside (NSC141540), doxorubicin (NSC123127), gemcitabine (NSC613327), 5-fluorouracil (NSC19893), paclitaxel (NSC125973), vemurafenib (NSC761431), MSA-2 (NSC828583), SN-011 (NSC837082), adavosertib (NSC754352), prexasertib (NSC758257), carboplatin (NSC241240) and oxaliplatin (NSC266046), were obtained from the National Cancer Institute (NCI) Developmental Therapeutics Program Chemical Repository (21). The FDA-approved anticancer drug set is available from the Developmental Therapeutics Program at https://dtp.cancer.gov/organization/dscb/obtaining/. […] The stock solutions were prepared in dimethyl sulfoxide (DMSO, Sigma-Aldrich, St. Louis, MO, cat. D2650), except for the platinum compounds which were prepared in saline (Quality Biological, Gaithersburg, MD, cat. 114-055-101), at 800-fold the tested concentration and stored at -70 degrees C prior to their use. All drugs and investigational agents were tested over a range starting from a high concentration at or near the clinical Cmax and decreasing in half-log increments. If the clinical Cmax for an agent had not been determined, the highest concentration tested was 10 microM, except for SN-38, which was tested at a high concentration of 1 microM.\nCell Culture. All cells were maintained in an incubator at 37 degrees C and 5% CO2 with 95% humidity. The PDC lines were cultured according to standard operating procedures established by the NCI PDMR (https://pdmr.cancer.gov). Table 3 of the manuscript, lists the cell lines along with the number of the three cell types plated to form the mct-spheroids and media for tumor cell growth. After thawing, all PDC lines, except 997537-175-T-J1-PDC and 415267-285-R-J2-PDC, were cultured in Matrigel-coated flasks prepared with a working solution of 1X Ham's F-12 nutrient mix, without supplementation (Thermo Fisher Scientific, cat. 11765054), 100 U/mL penicillin-streptomycin (Thermo Fisher Scientific, cat. 15140122), and 2.5% Matrigel (Corning Inc., Corning, NY, cat. 354248) for the first three passages. The two PDC lines 997537-175-T-J1-PDC and 415267-285-R-J2-PDC were cultured on uncoated flasks. The 857933-349-R-J2-PDC line was cultured in 6C/Colon 1B media containing advanced DMEM/F-12 (Thermo Fisher Scientific, cat. 12634028), 10 mM HEPES (Thermo Fisher Scientific, cat. 15630080), 1X GlutaMAX supplement (Thermo Fisher Scientific, cat. 35050061), 0.1 mg/mL primocin (InvivoGen, San Diego, CA, cat. ant-pm-2), 10% defined fetal bovine serum, heat inactivated (HyClone Laboratories Inc., Logan, UT, cat. SH30070.03HI), 50% L-WRN conditioned media (ATCC, cat. CRL-3276), 1.25 mM N-Acetyl-L-cysteine (Sigma-Aldrich, cat. A9165), 10 mM nicotinamide (Sigma-Aldrich, cat. N0636), 1X B-27 supplement (Thermo Fisher Scientific, cat. 17504044), 1X N-2 supplement (Thermo Fisher Scientific, cat. […]"}
{"smiles": "CCc1cc2c(N3CCc4c(cc(Cn5ccnc5)cc4-c4cn(C)nc4C(F)(F)F)C3=O)ccnc2c(OC)n1", "note": "+ Nc1ccc(C#CCN(C(=O)Cc2ncc(C(F)(F)F)cc2C(F)(F)F)c2ccc(F)cc2)nn1", "values": [{"measurement": "IC50", "setting": "second compound 0.0316 µM", "result": "> 10", "unit": "µM"}, {"measurement": "IC50", "setting": "second compound 0.1 µM", "result": "> 10", "unit": "µM"}, {"measurement": "IC50", "setting": "second compound 0.316 µM", "result": "> 10", "unit": "µM"}, {"measurement": "IC50", "setting": "second compound 1 µM", "result": "> 10", "unit": "µM"}, {"measurement": "IC50", "setting": "second compound 3.16 µM", "result": "> 10", "unit": "µM"}, {"measurement": "IC50", "setting": "second compound 10 µM", "result": "> 10", "unit": "µM"}, {"measurement": "viability, T/C", "setting": "second compound 0.0316 µM, first compound 0.0316 µM", "result": 98, "unit": "%"}, {"measurement": "viability, T/C", "setting": "second compound 0.0316 µM, first compound 0.1 µM", "result": 105, "unit": "%"}, {"measurement": "viability, T/C", "setting": "second compound 0.0316 µM, first compound 0.316 µM", "result": 116, "unit": "%"}, {"measurement": "viability, T/C", "setting": "second compound 0.0316 µM, first compound 1 µM", "result": 137, "unit": "%"}, {"measurement": "viability, T/C", "setting": "second compound 0.0316 µM, first compound 3.16 µM", "result": 103, "unit": "%"}, {"measurement": "viability, T/C", "setting": "second compound 0.0316 µM, first compound 10 µM", "result": 80.2, "unit": "%"}, {"measurement": "viability, T/C", "setting": "second compound 0.1 µM, first compound 0.0316 µM", "result": 115, "unit": "%"}, {"measurement": "viability, T/C", "setting": "second compound 0.1 µM, first compound 0.1 µM", "result": 117, "unit": "%"}, {"measurement": "viability, T/C", "setting": "second compound 0.1 µM, first compound 0.316 µM", "result": 104, "unit": "%"}, {"measurement": "viability, T/C", "setting": "second compound 0.1 µM, first compound 1 µM", "result": 125, "unit": "%"}, {"measurement": "viability, T/C", "setting": "second compound 0.1 µM, first compound 3.16 µM", "result": 99.2, "unit": "%"}, {"measurement": "viability, T/C", "setting": "second compound 0.1 µM, first compound 10 µM", "result": 117, "unit": "%"}, {"measurement": "viability, T/C", "setting": "second compound 0.316 µM, first compound 0.0316 µM", "result": 98.8, "unit": "%"}, {"measurement": "viability, T/C", "setting": "second compound 0.316 µM, first compound 0.1 µM", "result": 107, "unit": "%"}, {"measurement": "viability, T/C", "setting": "second compound 0.316 µM, first compound 0.316 µM", "result": 116, "unit": "%"}, {"measurement": "viability, T/C", "setting": "second compound 0.316 µM, first compound 1 µM", "result": 124, "unit": "%"}, {"measurement": "viability, T/C", "setting": "second compound 0.316 µM, first compound 3.16 µM", "result": 127, "unit": "%"}, {"measurement": "viability, T/C", "setting": "second compound 0.316 µM, first compound 10 µM", "result": 82.1, "unit": "%"}, {"measurement": "viability, T/C", "setting": "second compound 1 µM, first compound 0.0316 µM", "result": 103, "unit": "%"}, {"measurement": "viability, T/C", "setting": "second compound 1 µM, first compound 0.1 µM", "result": 93.7, "unit": "%"}, {"measurement": "viability, T/C", "setting": "second compound 1 µM, first compound 0.316 µM", "result": 125, "unit": "%"}, {"measurement": "viability, T/C", "setting": "second compound 1 µM, first compound 1 µM", "result": 123, "unit": "%"}, {"measurement": "viability, T/C", "setting": "second compound 1 µM, first compound 3.16 µM", "result": 99, "unit": "%"}, {"measurement": "viability, T/C", "setting": "second compound 1 µM, first compound 10 µM", "result": 105, "unit": "%"}, {"measurement": "viability, T/C", "setting": "second compound 3.16 µM, first compound 0.0316 µM", "result": 105, "unit": "%"}, {"measurement": "viability, T/C", "setting": "second compound 3.16 µM, first compound 0.1 µM", "result": 104, "unit": "%"}, {"measurement": "viability, T/C", "setting": "second compound 3.16 µM, first compound 0.316 µM", "result": 120, "unit": "%"}, {"measurement": "viability, T/C", "setting": "second compound 3.16 µM, first compound 1 µM", "result": 124, "unit": "%"}, {"measurement": "viability, T/C", "setting": "second compound 3.16 µM, first compound 3.16 µM", "result": 111, "unit": "%"}, {"measurement": "viability, T/C", "setting": "second compound 3.16 µM, first compound 10 µM", "result": 105, "unit": "%"}, {"measurement": "viability, T/C", "setting": "second compound 10 µM, first compound 0.0316 µM", "result": 118, "unit": "%"}, {"measurement": "viability, T/C", "setting": "second compound 10 µM, first compound 0.1 µM", "result": 101, "unit": "%"}, {"measurement": "viability, T/C", "setting": "second compound 10 µM, first compound 0.316 µM", "result": 129, "unit": "%"}, {"measurement": "viability, T/C", "setting": "second compound 10 µM, first compound 1 µM", "result": 135, "unit": "%"}, {"measurement": "viability, T/C", "setting": "second compound 10 µM, first compound 3.16 µM", "result": 120, "unit": "%"}, {"measurement": "viability, T/C", "setting": "second compound 10 µM, first compound 10 µM", "result": 92.8, "unit": "%"}]}
